Several values for one entry are separate records, joined by “and”; a condition that tells them apart may be missing. Identical values can stand only once. Like-named read-outs stand apart in the source and are kept apart here.
Experiments:
[1] = not told
Method: (§3) If a published reduction potential is not available, suitable techniques for measuring reduction potential are available and can be used. […] This technique involves measurement at 20° C., of an approximately 10^-4 molar solution of the dye in an electrolyte, such as methanol which is 0.05 molar in lithium chloride, using a dropping mercury electrode. The potential values are reported by reference to a silver-silver chloride electrode in a saturated solution of potassium chloride at 20° C.

Bacillus pumilus (K-1) = tested on: Bacillus pumilus (K-1)
Method: This can be accomplished by contacting a given concentration of the dye with the cells, removing the cells from the dye solution and then comparing the optical density (at λmax) of the remaining dye solution with a control containing the original concentration of the dye. The percentage decrease in optical density indicates the percentage of dye which has been bound to the cells.
The culture was collected by centrifugation at 5,000×g. for 10 minutes, and the resultant pellet was washed several times in cold 0.05 M potassium phosphate buffer, pH 7.0. The pellet was resuspended in the buffer solution to a final optical density of 1.0 at 620 nm as measured with a Bausch and Lomb Spectronic 20.
One-tenth ml of dye solution (1 mg/ml in methanol) was added to a tube containing 5 ml of cell suspension described above and a control tube containing 0.05 M potassium phosphate buffer, pH 7.0. All tubes were well agitated using a Vari-Whirl Mixer (Will Scientific Co.) and then centrifuged at 10,000×g. for 10 minutes.
The percent binding of dye to the cells for each dye, was determined by comparison of the density at λmax of the control supernatant sample with the density at λmax of the supernatant of the cell sample.

Bacillus subtilis = experiment: Inhibition of bacterial growth, filter paper technique; assay type: cell-based; settings: Table VIII, 10^-3 molar, Gram +, 26° C./48 hrs, read-out: Area of Inhibition (diameter)
Method: (§1) Schleider and Schuell #740-E filter paper (12.7 mm diameter) was dipped in the dye solution, touched to the side of the beaker to removed excess dye, and placed in the center of the inoculated agar plates (prepared in (B) above). The plates were then incubated at 26° C. for […]. The plates were then examined to determine if bacterial growth had been affected by the dye-containing filter paper. With certain dyes bacterial growth was inhibited in a circular area around the filter paper. With other dyes no such area of inhibition was observed.
(§2) Cultures of various gram-negative and gram-positive bacteria were prepared in nutrient and Tryptic Soy Agar and plates were poured as described in Example 1. Methanolic solutions of cyanine dyes were prepared at 10^-3 molar and applied to the plates using the filter paper technique described in Example 1. Control plates were prepared in which the filter paper contained methanol or a 0.2 molar aqueous solution of phenol. The plates were then incubated at 26° C. or 37° C. for forty-eight hours.

Bacillus megaterium = experiment: as above; assay type: cell-based; settings: Table VIII, 10^-3 molar, Gram +, Tryptic Soy, 37° C./48 hrs; for zone of inhibition at 1000 µM: Priestia megaterium, read-out: Area of Inhibition (diameter)
Method: as §1, §2

[2] = tested on: Escherichia coli, Strain B; experiment: as above; assay type: cell-based; settings: Table VIII; 10^-3 molar; Gram -; 37° C./48 hrs
Method: as §1, §2

Alcaligenes faecalis = experiment: as above; assay type: cell-based; settings: Table VIII; 10^-3 molar; Gram -; 37° C./48 hrs
Method: as §1, §2

Bacillus cereus = experiment: as above; assay type: cell-based; settings: Table VIII, 10^-3 molar, Gram +, 26° C./48 hrs; for zone of inhibition at 1000 µM: Bacillus cereus, read-out: Area of Inhibition (diameter)
Method: as §1, §2

Enterobacter aerogenes = experiment: as above; assay type: cell-based; settings: Table VIII; 10^-3 molar; Gram -; 37° C./48 hrs
Method: as §1, §2

Micrococus luteus = experiment: as above; assay type: cell-based; settings: Table VIII, 10^-3 molar, Gram +, 26° C./48 hrs; for zone of inhibition at 1000 µM: read-out: Area of Inhibition (diameter)
Method: as §1, §2

Proteus vulgaris = experiment: as above; assay type: cell-based; settings: Table VIII; 10^-3 molar; Gram -; 37° C./48 hrs
Method: as §1, §2

Micrococcus flavus = experiment: as above; assay type: cell-based; settings: Table VIII, 10^-3 molar, Gram +, 26° C./48 hrs; for zone of inhibition at 1000 µM: Micrococcus flavus, read-out: Area of Inhibition (diameter)
Method: as §1, §2

[3] = tested on: Bacillus pumilus strain K-1; experiment: Inhibition of bacterial growth, filter paper on inoculated agar plates; assay type: cell-based
Method: Nutrient broth was prepared by mixing 8 grams of BACTO dehydrated nutrient broth per liter of distilled water. […] Samples of the nutrient broth were then inoculated with Bacillus pumilus strain K-1 culture. […]
Nutrient agar was prepared by mixing 23 grams of BACTO nutrient agar per liter of distilled water. The nutrient agar was sterilized in the same way as the nutrient broth. After it has cooled to about 45° C. 250 ml of the nutrient agar solution was aeseptically inoculated with 5 ml of the Bacillus pumilus, K-1 culture prepared in (A), above. Plates of the inoculated nutrient agar were then poured and allowed to harden.
[…] To minimize possible photocatalyzed reactions of the dyes, all preparations were performed under yellow lights and all incubations were performed in the dark.
Schleider and Schuell #740-E filter paper (12.7 mm diameter) was dipped in the dye solution, touched to the side of the beaker to removed excess dye, and placed in the center of the inoculated agar plates (prepared in (B) above). […] The plates were then examined to determine if bacterial growth had been affected by the dye-containing filter paper. […]
Control plates were prepared in which the filter paper contained methanol or a 0.2 molar aqueous solution of phenol. […]

Sea Urchin Eggs = experiment: Inhibition of cell division in fertilized sea urchin eggs; assay type: cell-based; settings: arbitrary scale 0 to 5, 5 most active; dye 10^-5 to 10^-6 molar, 60 minutes after fertilization
Method: To suspensions in filtered sea water of fertilized sea urchin eggs there was added, three minutes after fertilization, methanolic solutions of the dyes in an amount sufficient to yield a final concentration of dye of between 10^-5 and 10^-6 molar. The final concentration of methanol was, at a maximum 1×10^-4 molar. The eggs were visually observed at 60 minutes after fertilization to determine if cell division and the formation of mitotic apparatus had been inhibited. A rating was assigned based on the concentration of dye required to inhibit cell division and synthesis of DNA.

[4] = tested on: the bacteria (various gram-negative and gram-positive); experiment: Binding of dyes to the bacteria of Example 9; settings: determined as in Example 8
Method: In addition, binding of dyes 7, 17 and 24 to the bacteria was determined as in Example 8.

[5] = Oxidation potential (Eox) of the dye; assay type: physicochemical; settings: Tables I, II, V, VI
[6] = Reduction potential (ER) of the dye; settings: list of dyes; vs. silver-silver chloride electrode, 20° C.
Method: as §3

[7] = Bacillus pumilus, K1, 48 h, Table VIII, 10^-3 molar, Nutrient, 37° C./48 hrs, read-out: Area of Inhibition (diameter)
[8] = Bacillus pumilus, K1, Table IX, 10^-3 M, read-out: Diameter of Inhibition
[9] = Bacillus pumilus, K1, 72 h, Tables V and VI, 10^-3 molar, three days, read-out: Diameter of Inhibition
[10] = Bacillus pumilus, K1, Table II, 10^-4 molar, 26° C., forty-eight hours, read-out: Diameter of Inhibition
[11] = Bacillus pumilus, K1, Table IX, 10^-4 M, read-out: Diameter of Inhibition
[12] = Table II, 10^-4 molar, 26° C., forty-eight hours

| Structure (SMILES) | ER [1] | reduction potential (ER) [1] [volts] | % Bound (Bacillus pumilus (K-1)) [%] | binding to the bacteria (in words) [4] | zone of inhibition at 1000 µM (Bacillus subtilis) [mm] | zone of inhibition at 1000 µM (Bacillus megaterium) [mm] | Area of Inhibition (diameter) [2] | Area of Inhibition (diameter) (Alcaligenes faecalis) | Area of Inhibition (diameter) (Enterobacter aerogenes) | zone of inhibition at 1000 µM (Micrococus luteus) [mm] | Area of Inhibition (diameter) (Proteus vulgaris) | Activity Rating [3] | zone of inhibition at 1000 µM [3, 7] [mm] | zone of inhibition at 1000 µM [3, 8] [mm] | zone of inhibition at 1000 µM (Bacillus cereus) [mm] | zone of inhibition at 1000 µM (Micrococcus flavus) [mm] | Sea Urchin Eggs Activity (Sea Urchin Eggs) | also measured |
| --- | --- | --- | --- | --- | --- | --- | --- | --- | --- | --- | --- | --- | --- | --- | --- | --- | --- | --- |
| CCN1C(=Cc2oc3ccccc3[n+]2CC)Oc2ccccc21 [Dye 1] | -1.69 | -1.69 | 33.6 |  | 13 | 17 | No | No | No | 22 | No | 39 | 18 | 18 |  |  |  | Area of Inhibition (diameter) (Bacillus cereus): No; Area of Inhibition (diameter) (Micrococcus flavus): No |
| CCN1C(=CC=Cc2oc3ccccc3[n+]2CC)Oc2ccccc21 [Dye 7] | -1.26 | -1.26 | 31.7 | found to bind | 18 | 21 | No | No | No | 16 | No | 100 | 24 | 34 | 14 | 19 | +4 | zone of inhibition at 1000 µM [3, 9]: 34 mm; zone of inhibition at 100 µM ([3]; Bacillus pumilus, K1, Table I, 10^-4 molar, 26° C., fifty hours, dark, read-out: Diameter of Inhibition): 22.5 mm; zone of inhibition at 100 µM [3, 10]: 25.5 mm; zone of inhibition at 100 µM ([3]; Bacillus pumilus, K1, Table III, 1.0 × 10^-4 M, read-out: Diameter of Inhibition): 26 mm; zone of inhibition at 200 µM ([3]; Bacillus pumilus, K1, Table III, 2.0 × 10^-4 M, read-out: Diameter of Inhibition): 29 mm; zone of inhibition at 25 µM ([3]; Bacillus pumilus, K1, Table III, 2.5 × 10^-5 M, read-out: Diameter of Inhibition): 14.5 mm; zone of inhibition at 50 µM ([3]; Bacillus pumilus, K1, Table III, 5.0 × 10^-5 M, read-out: Diameter of Inhibition): 20 mm; zone of inhibition at 100 µM [3, 11]: 25.5 mm; degree of inhibition compared with phenol (in words) ([3]; dye 7 at 1×10^-4 molar): same degree of inhibition as phenol at 2.13×10^-1 molar; times more active as an inhibitor than phenol ([3]; dye 7 at 1×10^-4 molar vs phenol at 2.13×10^-1 molar): ~2000 times |
| CCN1C(=CC=Cc2sc3cc([N+](=O)[O-])ccc3[n+]2CC)Sc2cc([N+](=O)[O-])ccc21 [Dye 29] |  |  |  |  |  |  |  |  |  |  |  |  |  |  |  |  | 0 | % Bound (Bacillus pumilus (K-1); Table IX): 67.9%; Diameter of Inhibition ([3]; Table IX, 10^-3 M): None; Activity Rating ([3]; Table IX, 10^-3 M, relative to phenol concentration giving equal diameter, Dye 7 = 100 (dye 20 relative to dye 17)): 0; reduction potential (ER) [6]: -0.58 volts |

Now from value to compound, other results behind:

| ER [1] | reduction potential (ER) [1] [volts] | % Bound (Bacillus pumilus (K-1)) [%] | binding to the bacteria (in words) [4] | Structure (SMILES) | zone of inhibition at 1000 µM (Bacillus subtilis) [mm] | zone of inhibition at 1000 µM (Bacillus megaterium) [mm] | Area of Inhibition (diameter) [2] | Area of Inhibition (diameter) (Alcaligenes faecalis) | Area of Inhibition (diameter) (Enterobacter aerogenes) | zone of inhibition at 1000 µM (Micrococus luteus) [mm] | Area of Inhibition (diameter) (Proteus vulgaris) | Activity Rating [3] | zone of inhibition at 1000 µM [3, 7] [mm] | zone of inhibition at 1000 µM [3, 8] [mm] | zone of inhibition at 1000 µM (Bacillus cereus) [mm] | zone of inhibition at 1000 µM (Micrococcus flavus) [mm] | Sea Urchin Eggs Activity (Sea Urchin Eggs) | also measured |
| --- | --- | --- | --- | --- | --- | --- | --- | --- | --- | --- | --- | --- | --- | --- | --- | --- | --- | --- |
| -1.00 | -1.00 | 73.1 | found to bind | CCN1C(=CC=Cc2sc3ccccc3[n+]2CC)Sc2ccccc21 [Dye 17] | 15 | 14 | No | No | No | 14 | No | 18 and 31 | 17 | 19 | 13 | 15 | +4 | effect upon diameter of inhibition as a result of changing the anion ([3]; 10^-3 molar, three days): no effect upon diameter of inhibition; zone of inhibition at 1000 µM [3, 9]: 19 mm; zone of inhibition at 100 µM [3, 10]: 16.5 mm; zone of inhibition at 100 µM [3, 11]: 16.5 mm |
| -.83 | -0.83 | 99.4 |  | CCN1C(=CC=CC=Cc2oc3ccccc3[n+]2CC)Oc2ccccc21 [Dye 21] | 16 | 18 | No | No | No | 14 | No | 66 | 21 | 21 | 14 | 18 |  |  |
|  | -0.79 | 32.8 | found to bind | CCN1C(=CC=Cc2n(CC)c3nc4ccccc4nc3[n+]2CC)N(CC)c2nc3ccccc3nc21 [Dye 24] | 13 | 14 | No | No | Slight | 14 | No |  | 13 | 13 | 13.5 | 13 | 0 | Eox [5]: +1.00; Diameter of Inhibition [3, 12]: None; Diameter of Inhibition ([3]; Table IX, 10^-4 M): None |
|  | -0.20 | 83.7 |  | Cn1c(-c2ccccc2)c(C=CC=C2C(c3ccccc3)=[N+](C)c3ccccc32)c2ccccc21 [Dye 33] | 13 |  | No | No | No |  | No | 0 |  |  |  |  | 0 | Area of Inhibition (diameter) (Bacillus megaterium): No; Area of Inhibition (diameter) (Bacillus cereus): No; Area of Inhibition (diameter) (Micrococus luteus): Slight; Area of Inhibition (diameter) (Micrococcus flavus): No; Eox [5]: > +1.00; Diameter of Inhibition ([3]; Table I, 10^-4 molar, 26° C., fifty hours, dark): None; Diameter of Inhibition [3, 12]: None; Diameter of Inhibition ([3]; Table IX, 10^-3 M): None; Diameter of Inhibition ([3]; Table IX, 10^-4 M): None; Area of Inhibition (diameter) ([3]; Table VIII, 10^-3 molar, Nutrient, 37° C./48 hrs): No |

Source: US4232121A, “Process for selecting methine dyes which inhibit cell growth” (Eastman Kodak Company, priority 1978, dated 1980)
